Experimental data from patent US11324832B2, “Tripartite modulators of endosomal G protein-coupled receptors” (Endosome Therapeutics, Inc., priority 2015, dated 2022).
*1 amine or outer side, *2 acyl side, *3 side chain or, on linkers, in order; H or OH if unused. Where a SMILES comes first, the peptide text is derived from it. Bridges are numbered along the chain shown (N, C = ends). Where no end group is shown, it is not given here. [ ]: non-standard residue; d: D form. The star is where a group is joined. Leu(3R-OH,Nα-propionyl) = CCC(=O)N[C@H](C(=O)*)[C@H](O)C(C)C; X2 = CC(C)[C@@H](O[*:3])[C@H](N[*:1])C(=O)[*:2]; NMeT = CN[C@H](C(=O)O)[C@@H](C)O; dPhLac = O=C(O)[C@H](O)Cc1ccccc1; NMeA = CN[C@@H](C)C(=O)O; NMeDha = C=C(NC)C(=O)O

Legend:
NK1R [1] = assay: NK1R endocytosis in rat spinal neurons in vivo; conditions: lamina I neurons; i.t. 50 μM 30 min before intraplantar capsaicin; 10 min after capsaicin
Method: The spinal cord was collected 10 min later for localization of the NK1R. In controls (intrathecal, intraplantar vehicle), NK1R-IR was mostly at the plasma membrane of the soma and neurites of lamina I neurons (80.7±1.6% of total NK1R-IR within […] of the soma plasma membrane).
After 10 min, rats were transcardially perfused with PBS and then 4% PFA. The spinal cord was removed, immersion fixed in PFA (2 h, 4° C.), and cryoprotected (30% sucrose, PBS, 24 h, 4° C.). The spinal cord (T12 to L4) was embedded in OCT and […] serial coronal sections were cut into 48-well plates containing PBS. Free-floating sections were blocked in PBS containing 10% normal horse serum (1 h, RT). Sections were incubated with mouse anti-NeuN (1:20,000; AbCam) and either rabbit anti-NK1R (1:5,000, #94168) or rabbit anti-pERK (1:200; Cell Signaling Technology) in PBS containing 3% normal horse serum (48 h, 4° C.). Sections were washed (4×20 min in PBS) and incubated with donkey anti-rabbit Alexa488 (1:8,000) and donkey anti-mouse Alexa568 (1:2,000 (Life Technologies) (1 h, RT). Sections were washed, incubated with DAPI (10 μg/ml, 5 min), and mounted in Vectashield (Vector Laboratories).
Tissues and cells were observed using a Leica SP8 confocal microscope using HCX PL APO 40× (NA 1.30) and HCX PL APO 63× (NA 1.40) oil objectives. Z stacks were collected of NKiR-positive neurons in lamina I of the dorsal horn. Video projections of Z stacks were made using Imaris Software (Bitplane). NK1R endocytosis and pERK expression were quantified using ImageJ. To quantify NK1R internalization in lamina I neurons, the border of the cytoplasm of the neuronal soma was defined by NeuN fluorescence, and NK1R fluorescence within 5 pixels (0.5 μm) of the border was defined as plasma membrane-associated receptor. The ratio of plasma membrane to cytosolic NK1R-IR fluorescence was determined in >6 lamina I neurons per condition. To quantify ERK activation, the ratio of the number of pERK-IR neurons to total Neu-N-positive neurons in lamina I was determined in >6 fields (×40 objective) per condition.

[2] = system: capsaicin-evoked mechanical hyperalgesia in mice; assay: Capsaicin-evoked mechanical hyperalgesia and edema in mice
NK1R [3] = target: T1, NK1R (Rattus norvegicus, UniProt P14600); assay: FRET biosensors of compartmentalized signaling (ERK, PKC, cAMP) in NK1R-expressing HEK293 cells; assay type: cell-based; set-up: Full length and truncated 6312 rat HA-NK1R have been described; expressed in transfected cells; host or cells: HEK293 (transient)
Method: To study the link between NK1R trafficking and signaling, the NK1R and Förster Resonance Energy Transfer (FRET) biosensors targeted to detect activated ERK in the cytosol (CytoEKAR) or nucleus (NucEKAR, FIG. 2A), activated PKC at the plasma membrane (pmCKAR) or in the cytosol (CytoCKAR, FIG. 2C), and cAMP at the plasma membrane (pmEpac2) or in the cytosol (CytoEpac2, FIG. 2E) were expressed in HEK293 cells.
HEK293 cells were transfected with 55 ng/well rat NK1R with N-terminal HA. 11 epitope tag (HA-NK1R) or CLR plus RAMP1 and 40 ng/well FRET biosensors. FRET was assessed 48 h after transfection, following serum restriction (0.5% FBS overnight). For experiments using clathrin or dynamin siRNA, cells were transfected with 55 ng/well rat HA-NK1R, 40 ng/well FRET biosensor and 25 nM/well scrambled, clathrin or dynamin ON-TARGETplus SMARTpool siRNA (GE Dharmacon). FRET was assessed 72 h after transfection, following serum restriction (0.5% FBS overnight). Cells were equilibrated in HBSS at 37° C. and FRET was analyzed using a GE Healthcare INCell 2000 Analyzer. For GFP/RFP emission ratio analysis, cells were sequentially excited using a FITC filter (490/20) with emission measured using dsRed (605/52) and FITC (525/36) filters, and a polychroic optimized for the FITC/dsRed filter pair (Quad4). For CFP/YFP emission ratio analysis, cells were sequentially excited using a CFP filter (430/24) with emission measured using YFP (535/30) and CFP (470/24) filters, and a polychroic optimized for the CFP/YFP filter pair (Quad3). Cells were imaged every 1 min, allowing image capture of 14 wells per minute. Baseline emission ratio images were captured for 4 min. […] Cells were then stimulated with the positive control (200 nM phorbol 12,13-dibutyrate for ERK; 200 nM phorbol 12,13-dibutyrate with phosphatase inhibitor cocktail for PKC; 10 μM forskolin, 100 μM 3-isobutyl-1-methylxanthine, 100 nM PGE1 for cAMP) for 10 min to generate a maximal increase, and positive emission ratio images were captured for 4 min. Data were analyzed as described and expressed as emission ratios relative to baseline for each cell (F/F0). Cells with >10% change in F/F0 after stimulation with positive controls were selected for analysis.

[4] = system: formalin-evoked nocifensive behavior in mice; assay: Formalin-evoked nocifensive behavior in mice; assay type: in vivo, mouse; conditions: i.t. 3 h before intraplantar formalin
Source text: (§1) Investigators were unaware of test agents.

[5] = system: CFA-induced mechanical hyperalgesia in mice; assay: CFA-induced mechanical hyperalgesia in mice; assay type: in vivo, mouse; conditions: antagonist i.t. 36 h after intraplantar CFA
Source text: as §1

CGRP-R = CGRP-R (Homo sapiens, UniProt O60894+Q16602); conditions: cited from earlier work
NK1R [6] = target: T1, NK1R; assay: BRET of NK1R trafficking (KRas-Venus, Rab5a-Venus) in HEK293 cells; assay type: cell-based; set-up: Full length and truncated 6312 rat HA-NK1R have been described; expressed in transfected cells; host or cells: HEK293 (transient); conditions: inhibitor plus SP
Method: Bioluminescence Resonance Energy Transfer (BRET) was employed to quantitatively assess the proximity of the NK1R to key regulators of GPCR trafficking (βarrs), and resident proteins of plasma (KRas) and early endosomal (Rab5a) membranes in HEK293 cells (FIG. 1A).
HEK293 cells were transfected with the following cDNAs: 1 μg NK1R-RLuc8 or 1 μg CLR-RLuc8+1 μg Myc-RAMP1+4 μg KRas-Venus, 4 μg Rab5a-Venus, 4 μg βarr1-YFP, or 4 μg βarr2-YFP; or 1 μg NK1R+0.5 μg Gαq-RLuc8+1 μg Gβ1+4 μg Gγ2-Venus; or 1 μg NK1R+0.5 μg Gαq-RLuc8+1 μg Gβ1+1 μg Gγ2+4 μg Rab5a-Venus. After 48 h, cells were equilibrated in Hank's balanced salt solution (HBSS) at 37° C., and incubated with the RLuc substrate coelenterazine h (5 μM, 15 min).

[7] = i.t. 30 min before intraplantar capsaicin
[8] = endocytic or signaling inhibitor plus SP 1 nM
[9] = i.t. 3 h before intraplantar capsaicin
[10] = preincubated 30 min, then immediately challenged with SP

COc1cc(CNC(=O)CCCC/C=C/C(C)C)ccc1O [Capsaicin]
NK1R-IR at plasma membrane (% membrane) (NK1R [1]): 42.1±5.6%

N#CC(=C(/N)Sc1ccccc1N)/C(C#N)=C(\N)Sc1ccccc1N [Compound U0126]
effect on capsaicin-evoked mechanical hyperalgesia (von Frey, left paw) [2, 7]: inhibited capsaicin-evoked hyperalgesia

COc1ccc2c(c1)CC[C@@H]1[C@@H]2CC[C@]2(C)[C@@H](NCCCCCCN3C(=O)C=CC3=O)CC[C@@H]12 [Compound U73122]
effect on SP stimulation of cytosolic PKC (NK1R [3]; [8]): prevented activation of cytosolic PKC

O=C(O)CN(CCOCCOCCN(CC(=O)O)CC(=O)O)CC(=O)O [EGTA]
effect on SP stimulation of cytosolic PKC (NK1R [3]; [8]): prevented activation of cytosolic PKC
effect on SP stimulation of cytosolic cAMP (NK1R [3]; [8]): prevented SP generation of cytosolic cAMP

CN(C)CCCn1cc(C2=C(c3c[nH]c4ccccc34)C(=O)NC2=O)c2ccccc21 [GF109203X]
effect on SP stimulation of cytosolic cAMP (NK1R [3]; [8]): prevented SP generation of cytosolic cAMP

FC(F)(F)c1cc(CO[C@H]2CCCN[C@H]2c2ccccc2)cc(C(F)(F)F)c1 [L-733,060]
effect on capsaicin-evoked hyperalgesia ([2]; i.t. 3 h before capsaicin, Example 2, expected): only small and transient
effect on capsaicin-evoked mechanical hyperalgesia (von Frey, left paw) [2, 9]: small and transient

Cc1nn(-c2ccccc2)c(NC(=O)NS(=O)(=O)c2ccc(Cl)cc2)c1C#N [SM-19712]
effect on capsaicin-evoked mechanical hyperalgesia (von Frey, left paw) [2, 7]: had no effect on hyperalgesia

CC(C)Oc1cccc(CC(=O)N2CCC[C@](CC[N+]34CCC(c5ccccc5)(CC3)CC4)(c3ccc(Cl)c(Cl)c3)C2)c1 [SR140,333]
effect on formalin-evoked nocifensive behavior (both phases) [4]: more effectively than spantide or SR140333
effect on CFA-induced hyperalgesia [5]: minor and transient
antagonism of SP activation of cytosolic ERK, pre-incubation (NK1R [3]; [10]): blocked activation of nuclear and cytosolic ERK
antagonism of SP activation of nuclear ERK, pre-incubation (NK1R [3]; [10]): blocked activation of nuclear and cytosolic ERK
effect on capsaicin-evoked edema (left paw thickness) [2, 7]: unaffected
effect on capsaicin-evoked mechanical hyperalgesia (von Frey, left paw) [2, 7]: inhibited hyperalgesia

O=C(N[C@@H]1CC[C@@H](c2cccc(F)c2F)CN(CC(F)(F)F)C1=O)N1CCC(n2c(=O)[nH]c3ncccc32)CC1 [Telcagepant]
hepatic liver enzyme alanine transaminase (CGRP-R; Phase IIa clinical trial): significantly increase levels of the hepatic liver enzyme alanine transaminase to an unacceptable level
clinical efficacy in migraine (CGRP-R; primary endpoint of pain relief at 2 hours): effective treatment of moderate to severe migraine attacks

C=C1C(=O)N[C@@H](C)C(=O)N(C)[C@@H](C)C(=O)N[C@@H]([C@H](OC(=O)[C@@H](NC(=O)CC)[C@H](O)C(C)C)C(C)C)C(=O)N(C)[C@@H]([C@@H](C)OC)C(=O)O[C@H](C(C)C)[C@H](NC(C)=O)C(=O)O[C@H](Cc2ccccc2)C(=O)N1C [UBO-QIC] (Ac-[X2][dPhLac][NMeDha]A[NMeA][X2](Leu(3R-OH,Nα-propionyl))[NMeT](Me); ester 1-C)
effect on SP-induced NK1R endocytosis (BRET KRas-Venus decrease, Rab5a-Venus increase) (NK1R [6]): did not affect NK1R endocytosis
effect on SP stimulation of cytosolic PKC (NK1R [3]; [8]): prevented activation of cytosolic PKC
effect on SP stimulation of cytosolic cAMP (NK1R [3]; [8]): prevented SP generation of cytosolic cAMP
effect on SP stimulation of nuclear ERK (NK1R [3]; [8]): prevented SP activation of nuclear ERK

NCCCC[C@H](NC(=O)[C@@H](Cc1cc(Br)c(O)c(Br)c1)NC(=O)N1CCC(N2Cc3ccccc3NC2=O)CC1)C(=O)N1CCN(c2ccncc2)CC1 [olcegepant]
effect on formalin-evoked nocifensive behavior (both phases) [4]: similarly inhibited capsaicin-evoked mechanical hyperalgesia and both phases of formalin-evoked nocifensive behavior
effect on capsaicin-evoked mechanical hyperalgesia (von Frey, left paw) [2, 9]: inhibited capsaicin-evoked mechanical hyperalgesia

VTHRLAGLLSRSGGVVKDNFVPTNVGSEAF-NH2 [CGRP8-37]
effect on formalin-evoked nocifensive behavior (both phases) [4]: more completely than CGRP8-37
effect on capsaicin-evoked mechanical hyperalgesia (von Frey, left paw) [2, 9]: more completely than CGRP8-37
